In PMC5049785, “Characterization of Novel Antimalarial Compound ACT-451840: Preclinical Assessment of Activity and Dose–Efficacy Modeling” (PLoS Medicine, 2016):
Like-named read-outs stand apart in the source and are kept apart here. One block for each compound: values may come before it.

Tests used:
[1] = tested on: P. falciparum clinical isolates (Papua, Indonesia); test: Ex vivo drug susceptibility, P. falciparum clinical isolates; type: cell-based, Plasmodium falciparum; details: Plasmodium falciparum, read-out: median IC50
Experimental: (§1) […]. Thick blood films made from each well were stained with 5% Giemsa solution for 30 min and examined microscopically. The number of schizonts per 200 asexual-stage parasites was determined for each drug concentration and normalized to the control well.

[2] = tested on: P. vivax clinical isolates (Papua, Indonesia); test: Ex vivo drug susceptibility, P. vivax clinical isolates; type: cell-based, Plasmodium vivax; details: Plasmodium vivax, read-out: median IC50
Experimental: as §1

[3] = tested on: P. falciparum TM90C2A (Thailand); test: [3H]-hypoxanthine incorporation assay, TM90C2A; type: cell-based, Plasmodium falciparum; details: Plasmodium falciparum
[4] = tested on: P. falciparum D6 (Sierra Leone); test: [3H]-hypoxanthine incorporation assay, D6; type: cell-based, Plasmodium falciparum; details: Plasmodium falciparum
[5] = tested on: P. falciparum K1 (Thailand); test: [3H]-hypoxanthine incorporation assay, K1; type: cell-based, Plasmodium falciparum; details: Plasmodium falciparum
[6] = tested on: P. falciparum V1/S (Vietnam); test: [3H]-hypoxanthine incorporation assay, V1/S; type: cell-based, Plasmodium falciparum; details: Plasmodium falciparum, read-out: 50% inhibitory concentration (IC50)
[7] = tested on: GFP-transfected P. berghei ANKA strain; test: In vivo efficacy, P. berghei mouse model; design: species or system Plasmodium berghei in female NMRI mice; details: 100 mg/kg quadruple-dose regimen
Experimental: In vivo efficacy against P. berghei was conducted at the Swiss TPH as previously described, with the modification that female NMRI mice from Harlan (Horst, The Netherlands) (n = 3) were infected with a GFP-transfected P. berghei ANKA strain (kindly donated by A. P. Waters and C. J. Janse, Leiden University Medical Center, The Netherlands) and parasitemia was determined using standard flow cytometry techniques. ACT-451840 was dissolved or suspended in corn oil before dosing and administered 24 h after infection (single-dose regimen) or 24, 48, and 72 h after infection (triple-dose regimen). With the single-dose regimen, blood was collected on Day 3 (72 h after infection). Samples for the triple-dose regimens were collected on Day 4 (96 h after infection). Antimalarial activity was calculated as the difference between the mean percent parasitemia for the control and treated groups expressed as a percent relative to the control group, consisting of five mice. Control mice were euthanized on Day 4 in order to prevent death typically occurring on Day 6. For the consistency in PK/PD modeling, Day 5 instead of Day 6 was considered the day of death, because treated animals were always euthanized one day before their natural death for animal welfare reasons. Animals were considered cured if there were no detectable parasites on Day 30 post-infection. To confirm the reliability of this assumption, blood from the surviving mice in curative experiments was inoculated into uninfected mice, and no parasitemia developed in these mice even after 30 d. The antimalarial efficacy is defined either as antimalarial activity or as survival: the two readouts of the P. berghei murine model.

[8] = tested on: P. falciparum 7G8 (Brazil); test: [3H]-hypoxanthine incorporation assay, 7G8; type: cell-based, Plasmodium falciparum; details: Plasmodium falciparum
Cam3.II^C580Y parasites = test: microbe, parasite or virus in culture; type: cell-based, P. falciparum; details: for IC50: Plasmodium falciparum, 72 h
Experimental: (§2) Parasites were cultured at Columbia University Medical Center (New York, USA) as previously described (1). Cam3.II and V1/S parasites, which had been genetically engineered to express K13 wild-type or K13 C580Y were seeded in a 96-well plate at 0.2% parasitemia and 1% hematocrit (2). […] Parasites were then stained with SYBR Green I (Invitrogen) and MitoTracker Deep Red (ThermoFisher Scientific) for 20 minutes at 37 °C (3). Stained parasites were detected using a BD Accuri 6 Flow Cytometer, and analyzed using FlowJo Software. IC50 values were determined by nonlinear regression using GraphPad Prism 6.0. For statistical analyses, Student’s t-tests were performed, and significance was set at P < 0.05.
(§3) Values indicate mean ± SEM, shown in nM. Significance determined by Student's t-test against parental lines.

[9] = tested on: Cam3.II^rev parasites (K13 wild-type); test: microbe, parasite or virus in culture; type: cell-based, P. falciparum; details: for IC50: Plasmodium falciparum, 72 h
Experimental: as §2, §3

[10] = tested on: P. falciparum W2 (Vietnam); test: [3H]-hypoxanthine incorporation assay, W2; type: cell-based, Plasmodium falciparum; details: Plasmodium falciparum
[11] = tested on: P. falciparum PfNF54^0230/N3; test: In vivo efficacy, P. falciparum mouse model (GSK); details: oral quadruple-dose regimen, once a day
Experimental: In vivo efficacy against P. falciparum was conducted at GSK according to the standard assay previously described. Female NODscidIL2Rγnull mice were engrafted with human erythrocytes and infected with the isolate P. falciparum PfNF54^0230/N3, a strain developed at GSK for growth in engrafted mice. […] Blood samples were collected on Days 3, 4, 5, 6, and 7 (n = 3 per time point) for parasitemia measurement by flow cytometry. Similarly, blood samples were collected at 0.5, 1, 2, 4, 6, 8, 12, 24, and 48 h after a single administration of 4.7 mg/kg of ACT-451840 to a parallel group of three P. falciparum-infected mice for PK parameters determination. Results are expressed exclusively as antimalarial activity in the P. falciparum murine model.

[12] = tested on: P. falciparum NF54 strain; test: [3H]-hypoxanthine incorporation assay, NF54; type: cell-based, Plasmodium falciparum; details: Plasmodium falciparum
Experimental: In vitro time-, stage-, and concentration-dependent effects were assessed using pyrimethamine as a stage-specific and slow-acting control, as described elsewhere.

V1/S^C580Y parasites = test: microbe, parasite or virus in culture; type: cell-based, P. falciparum
Experimental: as §2, §3

[13] = tested on: V1/S parasites (K13 wild-type); test: microbe, parasite or virus in culture; type: cell-based, P. falciparum
Experimental: as §2, §3

[14] = tested on: P. falciparum strain 3D7 (MR4); design: method as in PMID 16735432; details: 10 x IC50; cited from earlier work
[15] = P. falciparum clinical isolates, n = 27 (closed symbols)
[16] = P. vivax clinical isolates, n = 34 (open symbols)
[17] = read-out: 50% inhibitory concentration (IC50)
[18] = D6, read-out: 50% inhibitory concentration (IC50)
[19] = K1, read-out: 50% inhibitory concentration (IC50)
[20] = 7G8, read-out: 50% inhibitory concentration (IC50)

- IC50 [1, 15]: 16.8 nM
- IC50 [2, 16]: 12.3 nM
SMILES: CCN(CC)Cc1cc(Nc2ccnc3cc(Cl)ccc23)ccc1O [Amodiaquine]

SMILES: C[C@H]1[C@H](OC(=O)CCC(=O)O)O[C@@H]2O[C@@]3(C)CC[C@H]4[C@H](C)CC[C@@H]1[C@@]24OO3 [Artesunate, artesunate]
- IC50 [3, 17]: 4.6 ± 1.7 nM
- IC50 [4, 18]: 7.1 ± 1.9 nM
- IC50 [5, 19]: 2.7 ± 0.4 nM
- IC50 [6]: 3.2 ± 0.5 nM
- IC50 [1, 15]: 2.6 nM
- infected mice cured [7]: 50%
- IC50 [2, 16]: 2.9 nM
- IC50 [8, 20]: 1.8 ± 0.2 nM
- IC50 (Cam3.II^C580Y parasites): 6.6 ± 0.3 nM
- IC50 [9]: 6.7 ± 0.7 nM

SMILES: CCN(CC)CCCC(C)Nc1ccnc2cc(Cl)ccc12 (stereo not shown) [Chloroquine, chloroquine]
- IC50 [3, 17]: 174 ± 19 nM
- IC50 [4, 18]: 16 ± 1.2 nM
- IC50 ([10]; W2, read-out: 50% inhibitory concentration (IC50)): 326 ± 38 nM
- IC50 [5, 19]: 303 ± 37 nM
- IC50 [6]: 458 ± 66 nM
- IC50 [1]: 101 nM
- effective dose resulting in 90% antimalarial activity (ED90) [11]: 4.9 mg/kg
- IC50 [2]: 43.9 nM
- IC50 ([12]; NF54, read-out: 50% inhibitory concentration (IC50)): 11 ± 2.1 nM
- IC50 [8, 20]: 137 ± 21 nM

SMILES: OC(c1cc(C(F)(F)F)nc2c(C(F)(F)F)cccc12)C1CCCCN1 (stereo not shown) [Mefloquine, mefloquine]
- IC50 [1, 15]: 13.4 nM
- IC50 [2, 16]: 15.2 nM
- IC50 (V1/S^C580Y parasites; Plasmodium falciparum, 72 h): 0.8 ± 0.3 nM
- IC50 fold change (V1/S^C580Y parasites; V1/S^C580Y versus V1/S): 0.6
- IC50 ([13]; Plasmodium falciparum, 72 h): 1.3 ± 0.4 nM
- IC50 fold change ([13]; V1/S (parental reference line)): 1.0
- IC50 fold change (Cam3.II^C580Y parasites; Cam3.II^C580Y versus Cam3.II^rev): 1.2
- IC50 (Cam3.II^C580Y parasites): 14 ± 0.9 nM
- IC50 fold change ([9]; Cam3.II^rev (parental reference line)): 1.0
- IC50 [9]: 12 ± 1.5 nM

- IC50 [1, 15]: 25 nM
- IC50 [2, 16]: 14.8 nM
SMILES: Clc1ccc2c(N3CCN(CCCN4CCN(c5ccnc6cc(Cl)ccc56)CC4)CC3)ccnc2c1 [Piperaquine]

- IC50 ([3]; read-out: 50% inhibitory concentration (IC50), resistance CQ, PYR, MFQ, CYC, mean ± SD): 19200 nM
- IC50 ([4]; read-out: 50% inhibitory concentration (IC50), D6, resistance MFQ, mean ± SD): 5.4 ± 1.3 nM
- IC50 ([10]; read-out: 50% inhibitory concentration (IC50), W2, resistance CQ, SUL, PYR, CYC, mean ± SD): 13900 nM
- IC50 ([5]; read-out: 50% inhibitory concentration (IC50), K1, resistance CQ, SUL, PYR, CYC, mean ± SD): 10100 nM
- IC50 ([6]; V1/S, resistance CQ, SUL, PYR, CYC, mean ± SD): 21900 nM
- IC50 ([12]; read-out: 50% inhibitory concentration (IC50), NF54, no resistance, mean ± SD, n = 3): 18 ± 0.8 nM
- IC50 ([8]; read-out: 50% inhibitory concentration (IC50), 7G8, resistance CQ, PYR, CYC, mean ± SD): 10500 nM
SMILES: CCc1nc(N)nc(N)c1-c1ccc(Cl)cc1 [Pyrimethamine, pyrimethamine]

SMILES: C[C@@H]1CC[C@H]2[C@@H](C)C(=O)O[C@@H]3O[C@@]4(C)CC[C@@H]1[C@]32OO4 [artemisinin]
- parasite clearance time to kill 99.9% of the initial population [14]: less than 24 h

SMILES: O=C1C(O)=C([C@H]2CC[C@H](c3ccc(Cl)cc3)CC2)C(=O)c2ccccc21 [atovaquone]
- lag phase in the killing curve [14]: 48 h
